# Measurements published in ChEMBL document CHEMBL3885881, “DrugMatrix”.
# Species on record: Rattus norvegicus
# Test: DrugMatrix - Regimen: Daily Repeat
# Assay type: toxicity, organism-based, Sprague-Dawley
# Set-up: regimen Daily Repeat, gender Male, age 6-8 weeks
# Settings: in vivo, iv, vehicle 100 % SALINE; for ABSOLUTE BASOPHIL / ABSOLUTE EOSINOPHIL / ABSOLUTE LYMPHOCYTE / ABSOLUTE MONOCYTE / ABSOLUTE SEGMENTED NEUTROPHIL / BASOPHIL / EOSINOPHIL / ERYTHROCYTE COUNT / HEMATOCRIT / HEMOGLOBIN / LEUKOCYTE COUNT / LYMPHOCYTE / MEAN CORPUSCULAR HEMOGLOBIN / MEAN CORPUSCULAR HEMOGLOBIN CONCENTRATION / MEAN CORPUSCULAR VOLUME / MONOCYTE / NEUTROPHIL / NUCLEATED RED BLOOD CELLS / PLATELET COUNT: tissue Blood; for ALANINE AMINOTRANSFERASE / ALBUMIN / ALKALINE PHOSPHATASE / ASPARTATE AMINOTRANSFERASE / BLOOD UREA NITROGEN / CARBON DIOXIDE / CHLORIDE / CHOLESTEROL / CREATINE PHOSPHOKINASE / CREATININE / GLUCOSE / LACTATE DEHYDROGENASE / LIPASE / PHOSPHORUS / POTASSIUM / SODIUM / TOTAL BILIRUBIN / TOTAL PROTEIN / URIC ACID: tissue Plasma
# [1] = 12 mg/kg, 120 h, dose level High, time 5 day
# [2] = […], 72 h, dose 1.2 mg/Kg, dose level Low, time 3 day
# [3] = […], 120 h, dose 1.2 mg/Kg, dose level Low, time 5 day
smiles,measurement,setting,value
Cc1c(N)nc([C@H](CC(N)=O)NC[C@H](N)C(N)=O)nc1C(=O)N[C@H](C(=O)N[C@H](C)[C@@H](O)[C@H](C)C(=O)N[C@H](C(=O)NCCc1nc(-c2nc(C(=O)NCCC[S+](C)C)cs2)cs1)[C@@H](C)O)[C@@H](O[C@@H]1O[C@@H](CO)[C@@H](O)[C@H](O)[C@@H]1O[C@H]1O[C@H](CO)[C@@H](O)[C@H](OC(N)=O)[C@@H]1O)c1c[nH]cn1.[Br-] [BLEOMYCIN A2],ABSOLUTE BASOPHIL,[1],0 CELLS/uL
same,ABSOLUTE EOSINOPHIL,[1],50 CELLS/uL
same,ABSOLUTE LYMPHOCYTE,[1],10142.67 CELLS/uL
same,ABSOLUTE MONOCYTE,[1],392.67 CELLS/uL
same,ABSOLUTE SEGMENTED NEUTROPHIL,[1],1914.67 CELLS/uL
same,BASOPHIL,[1],0%
same,EOSINOPHIL,[1],0.33%
same,ERYTHROCYTE COUNT,[1],6.36 x10E6/uL
same,HEMATOCRIT,[1],38.97%
same,HEMOGLOBIN,[1],15.17 G/DL
same,LEUKOCYTE COUNT,[1],12.5 x10E3/uL
same,LYMPHOCYTE,[1],80%
same,MEAN CORPUSCULAR HEMOGLOBIN,[1],23.87 pg
same,MEAN CORPUSCULAR HEMOGLOBIN CONCENTRATION,[1],38.93 G/DL
same,MEAN CORPUSCULAR VOLUME,[1],61.27 fL
same,MONOCYTE,[1],3.33%
same,NEUTROPHIL,[1],16.33%
same,NUCLEATED RED BLOOD CELLS,[1],0.33 /100WBC
same,PLATELET COUNT,[1],1342 x10E3/uL
same,ALANINE AMINOTRANSFERASE,[1],41.67 u/L
same,ALBUMIN,[1],3.83 G/DL
same,ALKALINE PHOSPHATASE,[1],202.67 u/L
same,ASPARTATE AMINOTRANSFERASE,[1],100.67 u/L
same,BLOOD UREA NITROGEN,[1],16.67 mg/dL
same,CARBON DIOXIDE,[1],29 mmol/L
same,CHLORIDE,[1],101 MEQ/L
same,CHOLESTEROL,[1],54.33 mg/dL
same,CREATINE PHOSPHOKINASE,[1],1017.67 u/L
same,CREATININE,[1],0.13 mg/dL
same,GLUCOSE,[1],145.67 mg/dL
same,LACTATE DEHYDROGENASE,[1],563.33 u/L
same,LIPASE,[1],10 u/L
same,PHOSPHORUS,[1],10.83 mg/dL
same,POTASSIUM,[1],6.11 MEQ/L
same,SODIUM,[1],142.27 MEQ/L
same,TOTAL BILIRUBIN,[1],0.1 mg/dL
same,TOTAL PROTEIN,[1],6 G/DL
same,URIC ACID,[1],1.3 mg/dL
same,ABSOLUTE BASOPHIL,[2],0 CELLS/uL
same,ABSOLUTE EOSINOPHIL,[2],212 CELLS/uL
same,ABSOLUTE LYMPHOCYTE,[2],11289 CELLS/uL
same,ABSOLUTE MONOCYTE,[2],312.33 CELLS/uL
same,ABSOLUTE SEGMENTED NEUTROPHIL,[2],1786.67 CELLS/uL
same,BASOPHIL,[2],0%
same,EOSINOPHIL,[2],1.67%
same,ERYTHROCYTE COUNT,[2],5.13 x10E6/uL
same,HEMATOCRIT,[2],35.1%
same,HEMOGLOBIN,[2],13.93 G/DL
same,LEUKOCYTE COUNT,[2],13.6 x10E3/uL
same,LYMPHOCYTE,[2],83%
same,MEAN CORPUSCULAR HEMOGLOBIN,[2],27.23 pg
same,MEAN CORPUSCULAR HEMOGLOBIN CONCENTRATION,[2],39.73 G/DL
same,MEAN CORPUSCULAR VOLUME,[2],68.43 fL
same,MONOCYTE,[2],2.33%
same,NEUTROPHIL,[2],13%
same,NUCLEATED RED BLOOD CELLS,[2],0 /100WBC
same,PLATELET COUNT,[2],1111 x10E3/uL
same,ALANINE AMINOTRANSFERASE,[2],40.67 u/L
same,ALBUMIN,[2],4.37 G/DL
same,ALKALINE PHOSPHATASE,[2],464.33 u/L
same,ASPARTATE AMINOTRANSFERASE,[2],82.33 u/L
same,BLOOD UREA NITROGEN,[2],13.33 mg/dL
same,CARBON DIOXIDE,[2],25.33 mmol/L
same,CHLORIDE,[2],100 MEQ/L
same,CHOLESTEROL,[2],69.33 mg/dL
same,CREATINE PHOSPHOKINASE,[2],261.33 u/L
same,CREATININE,[2],0.18 mg/dL
same,GLUCOSE,[2],184.67 mg/dL
same,LACTATE DEHYDROGENASE,[2],180 u/L
same,LIPASE,[2],10.67 u/L
same,PHOSPHORUS,[2],11.87 mg/dL
same,POTASSIUM,[2],5.72 MEQ/L
same,SODIUM,[2],144 MEQ/L
same,TOTAL BILIRUBIN,[2],0.23 mg/dL
same,TOTAL PROTEIN,[2],5.97 G/DL
same,URIC ACID,[2],1.6 mg/dL
same,ABSOLUTE BASOPHIL,[3],0 CELLS/uL
same,ABSOLUTE EOSINOPHIL,[3],37 CELLS/uL
same,ABSOLUTE LYMPHOCYTE,[3],10260.33 CELLS/uL
same,ABSOLUTE MONOCYTE,[3],119.33 CELLS/uL
same,ABSOLUTE SEGMENTED NEUTROPHIL,[3],1383.33 CELLS/uL
same,BASOPHIL,[3],0%
same,EOSINOPHIL,[3],0.33%
same,ERYTHROCYTE COUNT,[3],5.63 x10E6/uL
same,HEMATOCRIT,[3],35.3%
same,HEMOGLOBIN,[3],14.17 G/DL
same,LEUKOCYTE COUNT,[3],11.8 x10E3/uL
same,LYMPHOCYTE,[3],87%
same,MEAN CORPUSCULAR HEMOGLOBIN,[3],25.2 pg
same,MEAN CORPUSCULAR HEMOGLOBIN CONCENTRATION,[3],40.17 G/DL
same,MEAN CORPUSCULAR VOLUME,[3],62.77 fL
same,MONOCYTE,[3],1%
same,NEUTROPHIL,[3],11.67%
same,NUCLEATED RED BLOOD CELLS,[3],0 /100WBC
same,PLATELET COUNT,[3],1110.33 x10E3/uL
same,ALANINE AMINOTRANSFERASE,[3],46.33 u/L
same,ALBUMIN,[3],4.17 G/DL
same,ALKALINE PHOSPHATASE,[3],346 u/L
same,ASPARTATE AMINOTRANSFERASE,[3],85 u/L
same,BLOOD UREA NITROGEN,[3],17 mg/dL
same,CARBON DIOXIDE,[3],32.33 mmol/L
same,CHLORIDE,[3],99.67 MEQ/L
same,CHOLESTEROL,[3],72.33 mg/dL
same,CREATINE PHOSPHOKINASE,[3],387 u/L
same,CREATININE,[3],0.22 mg/dL
same,GLUCOSE,[3],142.67 mg/dL
same,LACTATE DEHYDROGENASE,[3],421.33 u/L
same,LIPASE,[3],10.67 u/L
same,PHOSPHORUS,[3],12.3 mg/dL
same,POTASSIUM,[3],6.05 MEQ/L
same,SODIUM,[3],144.13 MEQ/L
same,TOTAL BILIRUBIN,[3],0.17 mg/dL
same,TOTAL PROTEIN,[3],6.1 G/DL
same,URIC ACID,[3],1.27 mg/dL
